# Data: US7833795B2, “Assessment of cardiovascular risk using isoprostane biomarkers and COX-2 selective inhibitors” (The Trustees of the University of Pennsylvania, priority 2004, dated 2010)
# Key:
# Male Fisher 344 rats [1] = conditions: cited from earlier work
# Male Fisher 344 rats [2] = assay: Urinary 8,12-iso-iPF2α-VI by LC/MS/MS; assay type: in vivo, rat; conditions: for 8,12-iso-iPF2a-VI (by LC/MS/MS): urine
# Protocol: (§1) Animals and treatment protocol: Male Fisher 344 rats (260-280 g) obtained from Charles River Laboratories (Raleigh, N.C.) were used in all experiments. The animals were housed three to a cage. Autoclaved hardwood bedding was used in solid-bottom polycarbonate cages with filter tops. Animal rooms were maintained at 20-25° C. with 35-70% relative humidity with alternating 12-hour light and dark cycles. The rats had free access to deionized, reverse-osmosis-treated water and received autoclaved NIH 31 rodent chow (Zeigler Bros., Gardners, Pa.) ad libitum. For all experiments, rats were fasted overnight and then administered intraperitoneal injections of carbon tetrachloride in canola oil. Control rats received an equal volume of canola oil. Fasting continued throughout the experiment. Rats were anesthetized with Nembutal (0.1 ml/100 g body weight) and 5 ml blood was removed from the dorsal aorta proximal to its bifurcation into the common iliac arteries.
# (§2) Indomethacin pretreatment: The indomethacin regimen used has been previously shown to inhibit COX activity in rats by 90% (dose of 5 mg/kg s.c. 24 hours, 12 hours, and 2 hours prior to the injection of CCl4) (Jackson, 1989, J. Pharmacol. Exp. Ther. 250: 9-21). An additional booster dose was injected 8 hours after the last injection of CCl4 for the measurements performed 16 hours after treatment with CCl4.
# Meclofenamic acid pretreatment: Meclofenamic acid was injected at a dose of 5 mg/kg i.p. 12 h and 2 h prior to the injection of CCl4.
# (§3) Carbon tetrachloride (CCL4) treatment: Animals from each of the three dose groups (Control-canola oil, 120 mg/kg CCl4 i.p. and 1200 mg/kg CCl4 i.p.) were investigated at three time points (2, 7, and 16 hours after CCl4 injection). Indomethacin-pretreated rats were also investigated at the same three time points, and the meclofenamic acid-pretreated rats were investigated at one time point (7 hours). Each group consisted of five rats for each analysis, except the meclofenamic acid pretreatment group which consisted of six rats. Animal treatment, sample preparation, assessment of liver histology and serum enzyme activities are described elsewhere (Kadiiska et al., 2000, Free Radic. Biol. Med. 28: 838-845; Jackson, 1989, J. Pharmacol. Exp. Ther. 250: 9-21) and were carried out at NIEHS, Research Triangle Park, N.C.
# Urine sample preparation: The day prior to treatment, both experimental and control animals were placed in stainless steel metabolic cages especially designed for urine collection. For Experimental Example 2, animals were placed in metabolic cages immediately after the last injection of indomethacin or meclofenamic acid. Urine was collected (in dark vials) from the animals during the following intervals: 2 to 7 hours and 7 to 16 hours after CCl4 or canola oil (controls) treatment. Urine samples from indomethacin-pretreated rats were collected from 2 to 7 hours and 7 to 16 hours after the injection of CCl4, whereas samples from meclofenamic-acid-pretreated rats were collected only from 2 to 7 hours after the injection. All urine samples were immediately frozen on dry ice and stored at −70° C.
# Analysis of 8,12-iso-iPF2α-VI, which is, along with its epimer 5-epi-8,12-iso-iPF2α-VI, the most prevalent PGF-ring isoprostane in human urine, was accomplished by addition of a tetradeuterated analog, solid phase extraction and quantitation using liquid chromatography and tandem mass spectroscopy (LC/MS/MS) (Li et al., 1999, Proc. Natl. Acad. Sci. USA 96: 13381-13386). The measurements were performed at the University of Pennsylvania, Philadelphia, Pa.
# Male Fisher 344 rats [3] = assay: Plasma lipid hydroperoxides (LPO assay kit) after CCl4; assay type: in vivo, rat; conditions: for LOOH (by LPO assay kit): plasma
# Protocol: as §1, §3
# (§4) Plasma sample preparation: Blood (5 ml) was drawn through single draw Vacutainer® needles (21 Gauge) into open Vacutainer® blood collection tubes containing heparin. The tubes were gently inverted 2-3 times for mixing and immediately placed on ice. Blood was centrifuged (2,000 rpm for 10 minutes at 4° C.) no more than 30 minutes after collection, and the plasma was collected, frozen on dry ice and stored at −70° C.
# Two assays were used to measure the effect of CCl4 on lipid hydroperoxides. A lipid hydroperoxide assay kit (Catalog No. 705002) from Cayman Chemical Company (Ann Arbor, Mich.) was used to measure hydroperoxides directly, utilizing the redox reaction with ferrous ion. Hydroperoxides were extracted into chloroform and reacted with ferrous ions to produce ferric ions. The resulting ferric ions were detected using thiocyanate ion as the chromogen. The hydroperoxide concentration was determined based on the absorption at 504 nm using a Beckman DU-7 spectrophotometer at room temperature. The experiments were performed at National Institute of Environmental Health Sciences (NIEHS), Research Triangle Park, N.C.
# Male Fisher 344 rats [4] = assay: Plasma MDA by GC/NICI-MS; assay type: in vivo, rat; conditions: for MDA (by GC-M5): plasma
# Protocol: as §1, §2, §3, §4
# Plasma MDA concentrations were also measured by using gas chromatography/negative ion chemical ionization mass spectroscopy (GC/NICI-MS) as described by Yeo et al. (Yeo et al., 1994, Anal. Biochem. 220: 391-396). The stable isotope internal standard [^2H2] MDA and an antioxidant (2,6-tert-butyl-4-methylphenol) were added to the plasma samples. The samples were then incubated at room temperature in 6.6 mol H2SO4 for 10 minutes to hydrolyze the aldehydes from the proteins. Plasma MDA was converted to a stable pentafluorophenyl hydrazine derivative which was quantified by using the GC-MS in the negative chemical ionization mode. The assay was performed at Children's Hospital Oakland Research Institute, Oakland, Calif.
structure (smiles),measurement,setting,value
"ClC(Cl)(Cl)Cl [CCl4, Carbon tetrachloride]",serum liver enzyme activities,"Male Fisher 344 rats [1]; CCl4 120 and 1200 mg/kg, 2, 7, 16 h",significant increase in many of the enzyme activities studied was observed at the high dose at 2 hours and for both doses at 7 and 16 hours
same,"hepatic effects, histology","Male Fisher 344 rats [1]; both doses of CCl4, each time point",diffuse hepatocyte degeneration and infiltration of inflammatory cells associated with necrosis
same,"8,12-iso-iPF2a-VI (by LC/MS/MS)","Male Fisher 344 rats [2]; CCl4 120 mg/kg i.p., 7 h",36.8 ng/mL
same,"8,12-iso-iPF2a-VI (by LC/MS/MS)","Male Fisher 344 rats [2]; CCl4 120 mg/kg i.p., 16 h",32.4 ng/mL
same,"8,12-iso-iPF2a-VI (by LC/MS/MS)","Male Fisher 344 rats [2]; CCl4 1200 mg/kg i.p., 7 h",84.3 ng/mL
same,"8,12-iso-iPF2a-VI (by LC/MS/MS)","Male Fisher 344 rats [2]; CCl4 1200 mg/kg i.p., 16 h",78.5 ng/mL
same,"increase of urinary 8,12-iso-iPF2α-VI","Male Fisher 344 rats [2]; high dose CCl4, 7 h",17 fold
same,"increase of urinary 8,12-iso-iPF2α-VI","Male Fisher 344 rats [2]; high dose CCl4, 16 h",7 fold
same,LOOH (by LPO assay kit),"Male Fisher 344 rats [3]; CCl4 120 mg/kg i.p., 2 h",0.96 µM
same,LOOH (by LPO assay kit),"Male Fisher 344 rats [3]; CCl4 120 mg/kg i.p., 7 h",1.20 µM
same,LOOH (by LPO assay kit),"Male Fisher 344 rats [3]; CCl4 120 mg/kg i.p., 16 h",1.60 µM
same,LOOH (by LPO assay kit),"Male Fisher 344 rats [3]; CCl4 1200 mg/kg i.p., 2 h",1.42 µM
same,LOOH (by LPO assay kit),"Male Fisher 344 rats [3]; CCl4 1200 mg/kg i.p., 7 h",1.35 µM
same,LOOH (by LPO assay kit),"Male Fisher 344 rats [3]; CCl4 1200 mg/kg i.p., 16 h",1.64 µM
same,increase of lipid hydroperoxides compared to controls (kit),"Male Fisher 344 rats [3]; high dose CCl4, 2 hour",3 fold
same,increase of plasma MDA (GC/NICI-MS),Male Fisher 344 rats [4]; 7 hours after CCl4,3 fold
same,MDA (by GC-M5),"Male Fisher 344 rats [4]; CCl4 120 mg/kg i.p., 2 h",0.41 µM
same,MDA (by GC-M5),"Male Fisher 344 rats [4]; CCl4 120 mg/kg i.p., 7 h",0.35 µM
same,MDA (by GC-M5),"Male Fisher 344 rats [4]; CCl4 120 mg/kg i.p., 16 h",0.22 µM
same,MDA (by GC-M5),"Male Fisher 344 rats [4]; CCl4 1200 mg/kg i.p., 2 h",1.35 µM
same,MDA (by GC-M5),"Male Fisher 344 rats [4]; CCl4 1200 mg/kg i.p., 7 h",0.36 µM
same,MDA (by GC-M5),"Male Fisher 344 rats [4]; CCl4 1200 mg/kg i.p., 16 h",0.23 µM
same,increase of plasma MDA compared to controls (GC/NICI-MS),"Male Fisher 344 rats [4]; higher dose of CCl4, 2 hours",12 fold
